Reference: a melting point compilation (Tetko et al.; mined from patent text by program, amines drawn as free bases though some values may be those of a salt)

Row | SMILES | melting point [°C]
1 | COc1ccc2c(c1)c(CC(=O)O)c(C)n2C(=O)c1ccc(F)c(F)c1 | 113 to 115
2 | CCOCCc1ccc(OCCNc2ncnc(C)c2Cl)c(C)c1 | 57 to 58
3 | CN(C)C(=O)CC(C)(C)C(=O)O | 119 to 121
4 | O=C1NC(=O)C(=Cc2ccc(OC3CCN(C(=O)OCC4c5ccccc5-c5ccccc54)CC3)cc2)S1 | 185
5 | CCCCC(F)c1cc(=O)[nH]cn1 (configuration not stated) | 148
6 | CCOC(=O)C1=C(C)NN=C(CC)C1c1cccc(OC)c1 (configuration not stated) | 89
7 | Sc1nccn1-c1nccs1 | 211 to 213
8 | O=CNc1ccc(Cl)cc1C(=O)c1ccccc1Cl | 106 to 107
9 | CC1CCC(=NNc2ccccc2)c2ncc(CC(=O)O)c(=O)n21 (configuration not stated) | 160 to 162
10 | Fc1cc(-c2cc(C(F)(F)F)n3cnc(-c4ccncc4)c3n2)ccc1C(F)(F)F | 267
11 | CCOC(Cc1ccc(OCCN2CCSc3ccccc32)cc1)C(N)=O (configuration not stated) | 120 to 122
12 | CCCC(=O)NN(C(=O)C(=O)NN)C(=O)c1ccccc1 | 254
13 | NC(=O)c1cc2c(Sc3ccc(Cl)cc3)cncc2s1 | 239 to 241
14 | N#CCCOC(=O)C=Cc1ccccc1 | 62 to 65
15 | COc1cc(OC)c2cnoc2c1 | 100 to 101
16 | CCOC(=O)COc1ccc2c(=O)c3c(oc2c1)C(=Cc1ccccc1)CC3 | 152 to 154
17 | CC[C@H]1[C@H](O)CC(=O)N1c1ccc(C#N)c(Cl)c1 | 118 to 120
18 | COc1cc2ccc3nc4ccccc4cc3c2cc1OC | 190 to 192
19 | O=C(O)c1cccc(-c2ccc3c(c2)N(c2ccc(Cl)c(Cl)c2)CC3)c1 | 205 to 206
20 | CNC(=S)C1(c2cnccn2)CCCS1 (configuration not stated) | 127
21 | C=CCN(C)CCNc1ccnc2cc(Cl)ccc12 | 91 to 93

Row | SMILES | melting point [°C]
22 | Cc1cc(Br)cnc1CCCCNC1=NS(=O)(=O)c2cc([N+](=O)[O-])ccc21 | 235 to 242
23 | CN(C)S(=O)(=O)c1c(C(F)(F)F)nn(-c2c(Cl)cc(C(F)(F)F)cc2Cl)c1N | 178 to 179
24 | CCOCc1cc2cc(Cl)ccc2oc1=Nc1ccc(OC)cc1 | 136 to 138
25 | Cc1ccc(-n2cnc3nncc-3c2N)cc1 | > 300
26 | NS(=O)(=O)c1cc2c(cc1Cl)C(=O)N(Cc1cccnc1)C2=O | 210 to 212
27 | COC(=O)Cc1ccc(C(C)(C)C)c([N+](=O)[O-])c1 | 92 to 95
28 | O=c1nc(NCCCn2ccnc2)n2c3c1cnn3C(c1cccc(F)c1)=CC2 | 256 to 258
29 | O=C(NCc1ccccc1)c1ccc(-c2ccc3nnn(Cc4ccc5ncccc5c4)c3n2)cc1F | 163 to 165
30 | O=C1NCCN1C1CCCc2ccccc21 (configuration not stated) | 134 to 140
31 | N#CC(Cc1ccc(O)cc1)c1noc2cc(O)ccc12 (configuration not stated) | 214
32 | COc1ccc(C=Cc2cc(OC)c(OC)c(OC)c2)cc1OC | 150 to 152
33 | Cn1c(C(F)(F)F)c(Cl)c(=O)n(-c2ccc(Cl)c3nc(C(C)(C)C)oc23)c1=O | 83 to 86
34 | CCOC(=O)C(NC(=O)OC(C)(C)C)c1csc(N)n1 (configuration not stated) | 143 to 144
35 | N#Cc1ccc(CN2CCc3ccc(C(=O)CCCC4CCN(Cc5ccccc5Cl)CC4)cc3CC2)cc1 | 118 to 119
36 | O=C1c2c(Br)cccc2-n2cnc(-c3noc(CCl)n3)c2[C@@H]2CCCN12 | 242 to 244
37 | CNc1nc(C)c(C(=O)C(C#N)=CN(C)C)s1 | 245 to 246
38 | CN(C)c1ccnc(-c2ccncc2)n1 | 109 to 110
39 | Cc1c(-c2ccccc2)n(-c2ccccc2Cl)c(-c2ccccc2)cc1=O | 228 to 231
40 | C=CCN1Cc2cncn2C(c2ccc(C#N)cc2)C1=O (configuration not stated) | 107 to 109
41 | CC(C)(C)OC(=O)NCc1ccc(-n2c(-c3cccnc3N)nc3cc(Br)cnc32)cc1 | 129 to 131
42 | C=C(C)C(=O)N1c2ccccc2Sc2ccc(OC)cc21 | 91 to 92

More lines, now with the values ahead:

Row | melting point [°C] | SMILES
43 | 134 | NC(=O)C(c1ccccc1)c1ccccn1 (racemic)
44 | 287 to 288 | O=C(O)c1cc2c(c(C(=O)O)c1)NCCCC2
45 | 143 to 146 | COc1cc2c(cc1C(O)c1ccccc1)C=C2C(=O)O (configuration not stated)
46 | 87 to 89 | C1=Cc2cc(C=C(c3ccc4c(c3)C=C4)c3ccc4c(c3)C=C4)ccc21
47 | 143 to 144 | CCC(C)(C)c1ccc(Oc2cccc(C#N)c2C#N)c(C(C)(C)CC)c1
48 | 168 to 169 | CC(C)(C)OC(=O)N1CCn2c(Br)c(-c3cccc(F)c3)c(C(=O)n3ccnc3)c2C1
49 | 272 | Cc1cc(-c2cc(C(F)(F)F)n3ncc(-c4nc(-c5cnc(N)nc5)no4)c3n2)ccc1Cl
50 | 110 to 113 | CC1(C=O)CC1(c1ccc(F)cc1)c1ccc(F)cc1 (configuration not stated)
51 | 200 to 210 | Cn1c(COc2ccc(CC3SC(=O)NC3=O)cc2)nc2ccc(Oc3ccccn3)cc21 (configuration not stated)
52 | 286 to 288 | CCCCOc1cc(C(=O)O)cc(N)c1C(=O)c1ccc(Cl)cc1
53 | 81 to 84 | COc1ccc(Oc2ccc(OC(=O)N3CCC(C)CC3)cc2)cc1
54 | 156 to 158 | c1ccc(Oc2cccc(CSc3nc4cnccc4[nH]3)c2)cc1
55 | 66 to 67 | O=C(C(=O)c1cnn(CC(F)(F)F)c1)c1cccc(Br)c1
56 | 151 to 154 | COc1ccc(C(C)C)cc1-c1cc(C(=O)NC2CCN(C(=O)OC(C)(C)C)C2)c(OCc2ccccc2)cc1OCc1ccccc1 (configuration not stated)
57 | > 280 | Cc1ccc2nc(Cl)nc(NN)c2c1
58 | 224 to 226 | O=C(Nc1cccc(-c2ccnc3c(C(=O)c4cccs4)cnn23)c1)c1ccc(-n2cccc2)cc1
59 | 139 to 149 | O=C(Nc1ccccc1)c1cccs1
60 | 143 to 144 | CNC(=O)CC1CN=C(c2cc3cc(Oc4ccc(S(C)(=O)=O)nc4)cc(OC4CCOCC4)c3[nH]2)S1 (configuration not stated)
61 | 94 to 97 | CC(C)(C)c1ccc(OCC(O)CN2CCC3(CC2)CSC2=C(O3)c3cc(Cl)ccc3C(=O)C2=O)cc1 (configuration not stated)
62 | 228 to 230 | O=C(Nc1ccc(C(=O)N2Cc3cccn3Cc3ccccc32)cc1)c1ccccc1Cl
63 | 146 to 148 | CN(CCN(C)c1ccc(OS(=O)(=O)C(F)(F)F)nc1)c1ccc(OS(=O)(=O)C(F)(F)F)nc1
64 | 58 | C=CCCC(C#N)(C#N)Cc1ccc(OCC(F)(F)F)cc1
65 | 193 to 194 | CCCOc1ccccc1-c1nc2nc(NCCOC)ncc2c(=O)[nH]1
66 | 162 to 164 | COc1cc2c(cc1OC)C1Cc3cc(OC)c(OC(C)=O)cc3CN1CC2 (configuration not stated)
67 | 124 to 126 | CN(C)c1nc(N)c(-c2cc(Cl)cc(Cl)c2Cl)c(C(F)(F)F)n1
68 | 218 to 219 | CCOc1ccc(NN=C2CCC(C)n3c2ncc(C(=O)O)c3=O)cc1 (configuration not stated)
69 | 206 to 210 | OCC1CC(n2c(Cl)nc3cc(Cl)c(Cl)cc32)C(O)C1O (configuration not stated)
70 | 180 | Cc1nc(N(C)N)[nH]c(=O)c1CCO
71 | 136 to 140 | Clc1cccc(-c2nc(-c3ccccn3)no2)c1
72 | 246 to 248 | O=S(=O)(CCS(=O)(=O)c1nc(-c2ccc(F)cc2)c(-c2ccc(F)cc2)[nH]1)c1nc(-c2ccc(F)cc2)c(-c2ccc(F)cc2)[nH]1
